What was measured:
[1] = tested on: M2-10B4 mouse marrow stromal cell line; experiment: Alkaline phosphatase (ALP) activity assay in M2 cells; format: cell-based; settings: for dose and time dependence of induction of alkaline phosphatase activity: concentrations between 0.5-10 μM; for alkaline phosphatase activity: ligands used at 10 μM, control C: 18±2, ±SD; for induction of alkaline phosphatase activity: osteogenic medium, 10 μM oxysterols, 3 days
Method: Cells: M2-10B4 mouse marrow stromal cell line obtained from American Type Culture Collection (ATCC, Rockville, Md., U.S.A.) was derived from bone marrow stromal cells of a (C57BL/6J×C3H/HeJ) F1 mouse, and support human and murine myelopoiesis in long-term cultures (as per ATCC) and have the ability to differentiate into osteoblastic and adipocytic cells. Unless specified, these cells were cultured in RPMI 1640 containing 10% heat-inactivated FBS, and supplemented with 1 mM sodium pyruvate, 100 U/ml penicillin, and 100 […] (all from Irvine Scientific).
Alkaline phosphatase activity assay: Colorimetric alkaline phosphatase (ALP) activity assay on whole cell extracts was performed as previously described.
Test 1: M2 cells at confluence were treated with control vehicle (C), or 10 μM oxysterols, in an osteogenic medium consisting of RPMI 1640 to which 10% fetal bovine serum (FBS), 50 μg/ml ascorbate and 3 mM beta-glycerophosphate (βGP) were added. After 3 days of incubation, alkaline phosphatase (ALP) activity was determined in cell homogenates by a colorimetric assay. […] FIG. 3A is a bar graph depicting the effect of various oxysterols on alkaline phosphatase activity in M2 cells.
M2 cells at confluence were treated in osteogenic medium with control vehicle (C) or a combination of 22R and 20S oxysterols, at the indicated concentrations. ALP activity was measured after 3 days as described above. […] FIG. 3B is a bar graph depicting the effect of a combination of oxysterols at various doses on alkaline phosphatase activity in M2 cells.
Test 2: M2 cells were grown in RPMI medium containing 10% fetal bovine serum (FBS). At confluence, the cells were treated in RPMI containing 5% FBS plus ascorbate at 50 μg/ml and β-glycerophosphate at 3 mM to induce osteoblastic differentiation. Adipogenic differentiation was induced by treating the cells in growth medium plus 10 ˜M troglitazone. A vehicle (C) or oxysterol treatment was applied to cells in a variety of doses (in μM): 20S-Hydroxycholesterol, 25-Hydroxycholesterol, 22R-Hydroxycholesterol; 22S-Hydroxycholesterol; 7-ketocholesterol. Cells were always treated at 90% confluence. After 4 days, alkaline phosphatase activity was determined in whole cell lysates and normalized to protein. Alternatively, MSC cultures were prepared and treated with oxysterols as described above. Cells were treated at 90% confluence with the combination of 22R-Hydroxycholesterol and 20S-Hydroxycholesterol, each at 5 uM, for 4 to 96 hours. The oxysterols where removed and fresh media without oxysterols was added for a total duration of 96 hours. Alkaline phosphatase activity was measured in whole cell extracts and normalized to protein.
M2 cells were treated at 90% confluence with vehicle (C), or oxysterols 20S-Hydroxycholesterol or 22S-Hydroxycholesterol at (0.5 μM) or (1 μM), in the absence or presence of cytochrome P450 inhibitor (SKF525A 10 μM (+)). MSC cultures were also treated at 90% confluence with vehicle (C), or 20S-Hydroxycholesterol (2 μM), in the absence or presence of cytochrome P450 […] (Benzylimidazole 50 μM) or SKF525A (10 μM). After 4 days, alkaline phosphatase activity was measured in whole cell extracts and normalized to protein.
Next, a combination of 22R and 20S oxysterols (RS, 2.5 μM each) were added in the presence or absence of SC as indicated. After 3 days, ALP activity was measured as described earlier. […] (B) M2 cells were treated as described in (A) and after 10 days matrix mineralization in cultures was quantified by a ^45Ca incorporation assay as described earlier.

[2] = tested on: osteocalcin mRNA; experiment: Northern blot for osteocalcin mRNA in M2 cells; format: cell-based, mouse
Method: RNA isolation and Northern blot analysis—Following treatment of cells under appropriate experimental conditions, total RNA was isolated using the RNA isolation kit from Stratagene (La Jolla, Calif., U.S.A.). Total RNA ([…]) was run on a 1% agarose/formaldehyde gel and transferred to Duralon-UV membranes (Strategene, Calif., U.S.A.) and cross-linked with UV light. The membranes were hybridized overnight at 60 degree C. with ^32P-labeled mouse osteocalcin cDNA probe, mouse lipoprotein lipase (LPL), mouse adipocyte protein 2 (aP2) PCR-generated probes, human 28S or 18S rRNA probes obtained from Geneka Biotechnology (Montreal, Quebec, Canada) and Maxim Biotech (San Francisco, Calif., U.S.A.), respectively. […] Following hybridization, the blots were washed twice at room temperature with 2×SSC+0.1% SDS, and then twice at 60 degree C. with 0.5×SSC+0.1% SDS, and exposed to X-ray film. The extent of gene induction was determined by densitometry.
After 4 and 8 days, total RNA from duplicate samples was isolated and analyzed for osteocalcin (Osc) and 28S rRNA expression by Northern blotting as described. FIG. 3E is a radiogram of Northern blotting for osteocalcin mRNA in M2 cells exposed to a control or combination of oxysterols for 4 or 8 days. FIG. 3F is a bar graph depicting the relative demsometric units of osteocalcin mRNA in M2 cells exposed to a control or combination of oxysterols for 4 or 8 days. Data from densitometric analysis of the Northern blot is shown in (F) as the average of duplicate samples, normalized to 28S rRNA.
Next, a combination of 22R and 20S oxysterols (RS, 2.5 μM each) were added in the presence or absence of SC as indicated. After 3 days, ALP activity was measured as described earlier. […] (B) M2 cells were treated as described in (A) and after 10 days matrix mineralization in cultures was quantified by a ^45Ca incorporation assay as described earlier. Results from a representative of three experiments are shown, reported as the mean±SD of quadruplicate determinations, normalized to protein concentration. (C) M2 cells were pretreated with 20 μM SC for 4 hours, followed by the addition of RS in the presence or absence of SC as described above. After 8 days, total RNA was isolated and analyzed for osteocalcin (Osc) and 18S rRNA expression by Northern blotting as previously described. Data from densitometric analysis of the Northern blot is shown in (D) as the average of duplicate samples, normalized to 18S rRNA. (E) M2 cells at confluence were pretreated for 2 hours with control vehicle (C), or PLA2 inhibitors ACA (25 μM) and AACOCF3 (AAC, 20 μM), in osteogenic medium. […] After 3 days, ALP activity was measured as previously described. […]

[3] = individual oxysterols 0.5-10 μM up to 14 days, combinations 5 μM each, 4 and 8 days

Row | Compound | dose and time dependence of induction of alkaline phosphatase activity [1] | alkaline phosphatase activity [1] [activity units/mg protein] | induction of alkaline phosphatase activity [1] | induction of osteocalcin gene expression [2, 3] | effect on alkaline phosphatase activity ([1]; TO at 1-10 μM) | induction of osteocalcin gene expression ([2]; TO treatment, after 10 days)
1 | CC(C)CCC[C@](C)(O)[C@H]1CC[C@H]2[C@@H]3CC=C4C[C@@H](O)CC[C@]4(C)[C@H]3CC[C@@]21C [20S, 20(S)-hydroxycholesterol] | dose- and time-dependent | 140±12 | induced | unable to induce | – | –
2 | CC(C)CC[C@@H](O)[C@@H](C)[C@H]1CC[C@H]2[C@@H]3CC=C4C[C@@H](O)CC[C@]4(C)[C@H]3CC[C@]12C [22R, 22(R)-hydroxycholesterol] | dose- and time-dependent | 45±5 | induced | unable to induce | – | –
3 | CC(C)CC[C@H](O)[C@@H](C)[C@H]1CC[C@H]2[C@@H]3CC=C4C[C@@H](O)CC[C@]4(C)[C@H]3CC[C@]12C [22S, 22(S)-hydroxycholesterol] | dose- and time-dependent | – | induced | unable to induce | – | –
4 | O=S(=O)(c1ccccc1)N(CC(F)(F)F)c1ccc(C(O)(C(F)(F)F)C(F)(F)F)cc1 [TO, TO-901317] | – | 3±0.5 | – | – | dose-dependent inhibition | did not induce

— patent US7897588B2, “Agents and methods for enhancing bone formation” (The Regents of the University of California, priority 2003, dated 2011)
